One data set concerns the target T1, IRAK4 (Homo sapiens, UniProt Q9NWZ3).
T1 sequence (Q9NWZ3 1-460): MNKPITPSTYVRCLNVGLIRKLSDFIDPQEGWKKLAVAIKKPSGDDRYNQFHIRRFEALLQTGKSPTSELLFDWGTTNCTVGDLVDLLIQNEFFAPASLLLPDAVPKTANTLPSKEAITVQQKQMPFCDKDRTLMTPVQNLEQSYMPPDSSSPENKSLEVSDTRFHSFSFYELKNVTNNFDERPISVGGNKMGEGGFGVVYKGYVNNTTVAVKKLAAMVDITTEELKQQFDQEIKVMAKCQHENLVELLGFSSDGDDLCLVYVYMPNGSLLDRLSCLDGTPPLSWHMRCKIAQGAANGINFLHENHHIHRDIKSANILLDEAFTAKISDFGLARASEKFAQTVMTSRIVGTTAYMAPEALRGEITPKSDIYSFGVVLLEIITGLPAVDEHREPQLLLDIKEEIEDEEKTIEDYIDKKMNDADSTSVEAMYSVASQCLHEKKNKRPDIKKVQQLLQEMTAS
The data set can be described thus: IRAK4 Z-lyte kinase assay (FRET peptide substrate). The class given is biochemical. The procedure: (§1) Select compounds described herein were evaluated for structure-activity analyses. For IRAK1, the following Alexa kinase assay procedure was followed: in the absence of an inhibitor, ADP formed by a kinase reaction will displace an Alexa Fluor 647 dye-labeled ADP tracer from an Eu3+-labeled anti-ADP antibody, resulting in a decrease in the time-resolved fluorescence resonance energy transfer (TR-FRET) signal. In the presence of an inhibitor, the amount of ADP formed by the kinase reaction is reduced, and the resulting intact antibody-tracer interaction produces a high TR-FRET signal. For IRAK4, the following Z-lyte kinase assay procedure was followed: phosphorylation-dependent protease susceptibility of a double-labeled peptide substrate is detected using fluorescence resonance energy transfer (FRET).

Another data set deals with IRAK1 (Homo sapiens, UniProt P51617). The data set can be described thus: IRAK1 Alexa kinase assay (TR-FRET, ADP tracer). It counts as biochemical. The procedure: as §1
For orientation: TR-FRET usually uses a lanthanide donor and a delayed reading to cut background.

The test system of data set [1] is kinome (off-targets YSK4 and MEK3). Description: Kinome selectivity (kinome tree). The class given is biochemical.
The subject of data set [2] is MYD88 mutated WM and ABC-DLBCL cells. The data set can be described thus: Synergism evaluation with Ibrutinib: tumor cell killing. It counts as cell-based. The following applies: for Combination Index (CI): synergism evaluation with Ibrutinib.
In the next data set the target is IRAK1 cysteine 302 (Homo sapiens, UniProt P51617). The data set can be described thus: Mass spec labelling studies. The class given is binding.
A further data set relates to NF-κB activation. The data set can be described thus: NF-κB activation under combination with Ibrutinib. It counts as cell-based.
Data set [3] concerns MYD88 mutated WM and ABC DLBCL cells. The data set can be described thus: Antiproliferative effects, single agent. It counts as cell-based.
The test system of data set [4] is WM patients' bone marrow LPCs. The data set can be described thus: Tumor cell killing in WM patients' bone marrow LPCs. The class given is cell-based, human. The following applies: combination with BTK inhibitor Ibrutinib.
Data set [5] deals with Waldenstrom's, DLBCL, and Burkitt Lymphoma cell lines. Description: Cellular data for covalent IRAK1 inhibitors: cell killing. It counts as cell-based.
A short description of another data set: In vivo PK studies. The following applies: dosed IV.

Like-named read-outs stand apart in the source and are kept apart here.

IRAK1, sequence (P51617 whole entry): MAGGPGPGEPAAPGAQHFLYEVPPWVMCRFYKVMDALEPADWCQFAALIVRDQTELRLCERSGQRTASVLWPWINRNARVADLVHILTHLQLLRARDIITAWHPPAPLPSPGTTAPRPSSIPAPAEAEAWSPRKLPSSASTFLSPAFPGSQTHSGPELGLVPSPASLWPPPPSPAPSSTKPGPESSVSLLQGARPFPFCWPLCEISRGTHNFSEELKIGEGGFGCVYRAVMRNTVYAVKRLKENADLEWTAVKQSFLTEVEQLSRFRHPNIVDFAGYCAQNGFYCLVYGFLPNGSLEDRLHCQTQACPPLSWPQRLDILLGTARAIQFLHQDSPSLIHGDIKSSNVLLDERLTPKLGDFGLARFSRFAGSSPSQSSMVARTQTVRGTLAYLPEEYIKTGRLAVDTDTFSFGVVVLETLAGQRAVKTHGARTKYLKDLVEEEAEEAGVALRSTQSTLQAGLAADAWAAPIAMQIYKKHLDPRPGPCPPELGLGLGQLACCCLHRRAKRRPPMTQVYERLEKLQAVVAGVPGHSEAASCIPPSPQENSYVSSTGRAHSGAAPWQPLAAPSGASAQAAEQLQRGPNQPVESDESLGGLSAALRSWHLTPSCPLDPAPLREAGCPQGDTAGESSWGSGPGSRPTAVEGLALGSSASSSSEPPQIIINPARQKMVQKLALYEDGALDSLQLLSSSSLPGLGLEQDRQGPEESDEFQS
IRAK1 cysteine 302, sequence (P51617 whole entry): as above

The IC50 is the concentration needed to halve the response being measured. Turning to `CCC(=O)Nc1cccc(C(=O)Nc2ccc(NC(=O)c3cccc(-c4ccn[nH]4)n3)cc2)c1` [JH-X-159], the concentration for half-maximal inhibition (IC50) was > 10000 nM at IRAK4 (Table 1, read-out: IC50 IRAK4) and 259 nM at IRAK1 (Table 1, read-out: IC50 IRAK1).

Regarding `C=CC(=O)Nc1cccc(C(=O)Nc2ccc(NC(=O)c3cccc(-c4cn[nH]c4)n3)cc2)c1` [JH-XIII-80-3, N-(4-(3-acrylamidobenzamido)phenyl)-6-(1H-pyrazol-4-yl)picolinamide], the half-inhibitory concentration (IC50) at IRAK4 (Table 1, read-out: IC50 IRAK4) is > 10000 nM; at IRAK4 (read-out: IRAK4 IC50), > 10000 nM; on IRAK1 (read-out: IRAK1 IC50), 22 nM.

As to `C=CC(=O)N[C@H]1CC[C@H](NC(=O)c2ccc(NC(=O)c3cccc(-c4ccn[nH]4)n3)cc2)CC1` [JH-XII-200-1, N-(4-(((1r,4r)-4-acrylamidocyclohexyl)carbamoyl)phenyl)-6-(1H-pyrazol-5-yl)picolinamide], the IC50 came to 154 nM at IRAK4 (read-out: IRAK4 IC50) and 46 nM at IRAK1 (read-out: IRAK1 IC50).

For `C=CC(=O)N[C@H]1CC[C@H](C(=O)Nc2ccc(NC(=O)c3cccc(-c4ccn[nH]4)n3)cc2)CC1` [JH-XII-205-1, N-(4-((1r,4r)-4-acrylamidocyclohexane-1-carboxamido)phenyl)-6-(1H-pyrazol-5-yl)picolinamide], the IC50 on IRAK4 (read-out: IRAK4 IC50) turned out to be 1110 nM; on IRAK1 (read-out: IRAK1 IC50), 88 nM.

Take `C=CC(=O)NC12CC(NC(=O)c3ccc(NC(=O)c4cccc(-c5ccn[nH]5)n4)cc3)(C1)C2` [JH-XII-200-3, N-(4-((3-acrylamidobicyclo[1.1.1]pentan-1-yl)carbamoyl)phenyl)-6-(1H-pyrazol-5-yl)picolinamide]: the values for the IC50 on IRAK4 (read-out: IRAK4 IC50) and at IRAK1 (read-out: IRAK1 IC50) were 607 nM and 51 nM, respectively.

Consider `C=CC(=O)Nc1cccc(-c2cn(-c3ccc(NC(=O)c4cccc(-c5ccn[nH]5)n4)cc3)nn2)c1` [JH-XIII-96-2, N-(4-(4-(3-acrylamidophenyl)-1H-1,2,3-triazol-1-yl)phenyl)-6-(1H-pyrazol-5-yl)picolinamide], for which the 50% inhibitory concentration (IC50) on IRAK4 (Table 1, read-out: IC50 IRAK4) was > 10000 nM; on IRAK4 (read-out: IRAK4 IC50) it was > 10000 nM; at IRAK1 (read-out: IRAK1 IC50), 40 nM.

As to `C=CC(=O)N[C@H]1CCC[C@@H](NC(=O)c2ccc(NC(=O)c3cccc(-c4ccn[nH]4)n3)cc2)C1` [JH-XII-200-2, N-(4-(((1R,3S)-3-acrylamidocyclohexyl)carbamoyl)phenyl)-6-(1H-pyrazol-5-yl)picolinamide], the IC50 on IRAK4 (read-out: IRAK4 IC50) turned out to be 648 nM; at IRAK1 (read-out: IRAK1 IC50) it was 24 nM.

For the compound `C=CC(=O)Nc1cccc(C(=O)Nc2ccc(NC(=O)c3cccc(-c4cnoc4)n3)cc2)c1` [JH-XIII-80-1, N-(4-(3-acrylamidobenzamido)phenyl)-6-(isoxazol-4-yl)picolinamide], the IC50 on IRAK4 (Table 1, read-out: IC50 IRAK4) is > 10000 nM; on IRAK4 (read-out: IRAK4 IC50), > 10000 nM; on IRAK1 (read-out: IRAK1 IC50), 12 nM.

As a reminder, the Cmax is the peak of the concentration-time curve. As usually defined, the clearance is the rate of elimination divided by the concentration. A high value points to a high capacity for elimination. As usually defined, the half-life is how long it takes for the measured level to halve. A low value points to rapid decline. For the compound `C=CC(=O)Nc1cccc(C(=O)Nc2ccc(NC(=O)c3cccc(-c4ccn[nH]4)n3)cc2)c1` [JH-X-119-01], the “kinome selectivity: off-target inhibition” value in data set [1] is “only two kinases, YSK4 and MEK3”. For the same compound, the “tumor cell killing, combination with Ibrutinib” value in data set [2] (combination with Ibrutinib, MYD88 mutated WM and ABC-DLBCL cells) is reported as “synergistic tumor cell killing”. For the same compound, in [2], the “Combination Index (CI)” value is < 1.0. Further, the “labelling of IRAK1 (mass spec)” value at IRAK1 cysteine 302 is “irreversibly labelled IRAK1 at cysteine 302”. Further, the IC50 on IRAK4 (Table 1, read-out: IC50 IRAK4) was > 10000 nM. The “inhibition of IRAK4” value against IRAK4 (at concentrations up to 10 μM) was “no inhibition”. In addition, the IC50 at IRAK1 (read-out: IRAK1 IC50) was found to be 9.3 nM. Also, in the data set with NF-κB activation, the “NF-κB activation, combination with Ibrutinib” value was “suppression”. Also, the antiproliferative effects result in data set [3] is “antiproliferative effects”. The “tumor cells killing in WM patients' bone marrow LPCs” value in data set [4] is given as “more robust tumor cells killing”. Also, the “cell killing ED50” value in [5] is recorded as “micromolar”. In the data set “In vivo PK studies”, the peak level (Cmax) was 9.95 µM, the clearance stood at 18.8 mL/min/kg and the half-life was 1.61 h.

`C=CC(=O)Nc1cccc(C(=O)Nc2ccc(NC(=O)c3cccc(-c4cnn(C)c4)n3)cc2)c1` [JH-XIII-80-2, N-(4-(3-acrylamidobenzamido)phenyl)-6-(1-methyl-1H-pyrazol-4-yl)picolinamide]: the IC50 on IRAK4 (Table 1, read-out: IC50 IRAK4) was > 10000 nM; at IRAK4 (read-out: IRAK4 IC50), > 10000 nM; on IRAK1 (read-out: IRAK1 IC50), 67 nM.

Turning to `CN(C)C/C=C/C(=O)Nc1cccc(C(=O)Nc2ccc(NC(=O)c3cccc(-c4ccn[nH]4)n3)cc2)c1` [JH-X-198], in data set [2], the “Combination Index (CI)” value is recorded as < 1.0. The IC50 is > 10000 nM at IRAK4 (Table 1, read-out: IC50 IRAK4) and 51 nM on IRAK1 (Table 1, read-out: IC50 IRAK1).

Regarding “N-(4-(4-acrylamidobenzamido)phenyl)-[2,3′-bipyridine]-6-carboxamide [JH-XIII-77]”, the IC50 on IRAK4 (Table 1, read-out: IC50 IRAK4) was > 10000 nM; at IRAK4 (read-out: IRAK4 IC50), > 10000 nM; at IRAK1 (read-out: IRAK1 IC50) it was 80 nM.

`C=CC(=O)N[C@H]1CCC[C@@H](C(=O)Nc2ccc(NC(=O)c3cccc(-c4ccn[nH]4)n3)cc2)C1` [JH-XII-205-2, N-(4-((1R,3S)-3-acrylamidocyclohexane-1-carboxamido)phenyl)-6-(1H-pyrazol-5-yl)picolinamide]: the IC50 at IRAK4 (Table 1, read-out: IC50 IRAK4) was > 10000 nM; at IRAK4 (read-out: IRAK4 IC50), > 10000 nM; on IRAK1 (read-out: IRAK1 IC50) it was 72 nM.

On to `C=CC(=O)Nc1ccc(C(=O)Nc2cccc(NC(=O)c3cccc(-c4ccn[nH]4)n3)c2)cc1` [JH-X-119-03], for which the IC50 on IRAK1 (Table 1, read-out: IC50 IRAK1) worked out at 55 nM.

Take `C=CC(=O)Nc1cccc(C(=O)Nc2cccc(NC(=O)c3cccc(-c4ccn[nH]4)n3)c2)c1` [JH-X-119-04]: the IC50 is > 10000 nM on IRAK4 (Table 1, read-out: IC50 IRAK4) and 25 nM at IRAK1 (Table 1, read-out: IC50 IRAK1).

`C=CC(=O)Nc1ccc(C(=O)Nc2ccc(NC(=O)c3cccc(-c4ccn[nH]4)n3)cc2)cc1` [JH-X-119-02]: the IC50 on IRAK4 (Table 1, read-out: IC50 IRAK4) is > 10000 nM; at IRAK1 (Table 1, read-out: IC50 IRAK1) it was 47 nM.
